Where two headings read alike, the source gives them in different places.
Assays:
[1] = Acute toxicity (LD50) by mice; details: mouse, in vivo
[2] = tested on: B16 subline of high pulmonary metastatic potential; details: 3 days;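 note: + means growth and ± means marked inhibition and - means cell death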
Procedure: (§1) The B16 subline of high pulmonary metastatic potential and murine tumor cell line L 929 were cultured in DME medium supplemented with 10% bovine fetal serum at 37° C. in the presence of 5% CO2. Then, cells were detached from the Petri dish with trypsin-EDTA solution. The B16 subline and L 929 were suspended in the medium described above in 1×10^4 cells/ml and 1×10^3 cells/ml, respectively. Each suspension, 150 μl, was added to 50 μl of N-(3-phenylpropyl)-1-deoxynojirimycin solution or Adriamycin (control) solution. Incubation was performed for 3 days for the B16 subline and for 4 days for L 929 strain.
as §1, with “of N-(4-phenoxy-trans-2-butenyl)-1-deoxynojirimycin” for “of N-(3-phenylpropyl)-1-deoxynojirimycin”, “days in” for “days for”, “L 929.” for “L 929 strain.”
as §1, with “of D-glucaro-δ-lactam calcium salt” for “of N-(3-phenylpropyl)-1-deoxynojirimycin”, “(control) solutions.” for “(control) solution.”, “days in” for “days for”, “L 929.” for “L 929 strain.”
The B16 subline of high pulmonary metastatic potential and murine tumor cell line L 929 were cultured in DME medium supplemented with 10% bovine fetal serum at 37° C. in the presence of 5% CO2. Then, cells were detached from the Petri dish with trypsin-EDTA solution. The B16 subline and L 929 were suspended in the medium described above in 1×10^4 cells/ml and 1×10^3 cells/ml, respectively. Each suspension, 150 μl, was added to 50 μl of 2,6-di-O-(1-(p-chlorobenzoyl)-5-methoxy-2-methylindole-3-acetyl)-D-gluco-δ-lactam solution or and Adriamycin (control) solutions. Incubation was performed for 3 days in the B16 subline and for 4 days in L 929.
The B16 subline of high pulmanary metastatic potential and murine tumor cell line L 929 were cultured in DME medium supplemented with 10% bovine fetal serum at 37° C. in the presence of 5% CO2. Then, cells were detached from the Petri dish with trypsin-EDTA solution. The B16 subline and L 929 were suspended in the medium described above in 1×10^4 cells/ml and 1×10^3 cells/ml, respectively. Each suspension, 150 μl, was added to 50 μl of 6-O-triphenylmethyl-D-gluco-δ-lactam solution or Adriamycin (control) solutions. Incubation was performed for 3 days in the B16 sibline and for 4 days in L 929.
The B16 subline of high pulmonary metastatic potential was inoculated into DME medium supplemented with 10% bovine fetal serum and 30 μg/ml of 1-deoxynojirimycin was added thereto followed by incubation at 37° C. for 3 days in the presence of 5% CO2. […] Next, the cells were detached from the Petri dish with trypsin-EDTA solution. The cells were suspended in PBS- in 1×10^6 cells/ml as viable cells. This suspension, 0.1 ml, was intravenously injected in the tail vein of the mouse BDF1 (8 week age, male; 1 group, 3 mice). After feeding for 14 days, the mouse was sacrificed to excise the lungs. The number of colonies of the B16 subline on the surface of and in the lungs was counted.

[3] = tested on: murine tumor cell line L 929; test: Cytotoxic activity against L 929 (growth observed with inverted microscope, 4 days); type: cell-based; details: for Cytotoxicity (in words): L 929, even at a concentration as high as 30 μg/ml; for Growth: 4 days;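 for growth: + means growth and ± means marked inhibition and - means cell death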
Procedure: The B16 subline of high pulmonary metastatic potential and murine tumor cell line L 929 were cultured in DME medium supplemented with 10% bovine fetal serum at 37° C. in the presence of 5% CO2.
The B16 subline of high pulmanary metastatic potential and murine tumor cell line L 929 were cultured in DME medium supplemented with 10% bovine fetal serum at 37° C. in the presence of 5% CO2.

[4] = tested on: B16 subline of high pulmonary metastatic potential; test: Inhibition of pulmonary metastasis of B16 subline pretreated with compound and injected i.v. into BDF1 mice; type: in vivo, murine; mouse BDF1; details: for Inhibition of metastasis to the lungs (in words): B16 subline, BDF1 mice
Procedure: Based on the method described priviously (Method in Cancer Research, 15, 399-439, 1978), a subline of high metastatic potential (high pulmonary colonization) was selected from murine melanoma B16 by repeating the i.v. transplantation of the tumor cells in BDF1 mice and the isolation of pulmonary metastatic clones.
Evaluation of the metastasis inhibiting activity was performed based on the method described previously (Proc. Natl Acad. Sci. USA, 83, 1752-1756, 1986, Cancer Research, 46, 858-862, 1986).
Firstly, the B16 subline of high metastatic potential was inoculated into Dulbecco's ME medium (DME medium) supplemented with 10% bovine fetal serum and the compound represented by general formula (I) described above was added thereto.
The B16 subline of high pulmonary metastatic potential was inoculated into DME medium supplemented with 10% bovine fetal serum and 30, 100 or 300 μg/ml of N (3-phenylpropyl)-1-deoxynojirimycin was added thereto followed by incubation at 37° C. for 3 days in the presence of 5% CO2.
Inhibition of metastasis was examined in a manner similar to Test Example 2 except that N-(3-phenyl-2-propenyl)-1-deoxy-nojirimycin and N-(3-p-chlorophenyl-3-methyl-2-propenyl)-1-deoxynojirimycin were used instead of N-(3-phenylpropyl)-1-deoxynojirimycin in Test Example 2. In this test example, however, 2.5×10^5 cells each of the B16 subline were transplanted to 3 mice for each group.
The B16 subline of high pulmonary metastatic potential was inoculated into DME medium supplemented with 10% bovine fetal serum and 30 μg/ml of N-(4-phenoxy-trans-2-butenyl)-1-deoxynojirimycin was added thereto followed by incubation at 37° C. for 3 days in the presence of 5% CO2. […] The number of colonies of the B16 subline formed on the surface of and in the lung was counted.
Inhibition of metastasis was examined in a manner similar to Test Example 5 except that N-(2-phenoxyethyl)-1-deoxynojirimycin was used instead of N-(4-phenoxy-trans-2-butenyl)-1-deoxynojirimycin in Test Example 5.
The B16 sibline of high pulmonary metastatic potential was inoculated into DME medium supplemented with 10% bovine fetal serum and 10 μg/ml of D-glucaro-δ-lactam calcium salt was added thereto followed by incubation at 37° C. for 3 days in the presence of 5% CO2. […] The number of the colonies formed on the surface of and in the lung was counted.
Inhibition of metastasis was examined in a manner similar to Test Example 8 except that D-glucaro-δ-lactam methyl ester and D-glucaro-δ-lactam ethyl ester were used instead of D-glucaro-δ-lactam calcium salt in Test Example 8.
The B16 subline of high pulmonary metastatic potential was inoculated into DME medium supplemented with 10% bovine fetal serum and 10 μg/ml of 2,6-di-O-(acetylsalicyloyl)-D-gluco-δ-lactam was added thereto followed by incubation at 37° C. for 3 days in the presence of 5% CO2.
The B16 subline of high pulmonary metastatic potential was inoculated into DME medium supplemented with 10% bovine fetal serum and 30 μg/ml of 6-O-triphenylmethyl-D-gluco-δ-lactam was added thereto followed by incubation at 37° C. for 3 days in the presence of 5% CO2.
The B16 subline of high pulmonary metastatic potential was inoculated into DME medium supplemented with 10% bovine fetal serum and 30 μg/ml of 1-deoxynojirimycin was added thereto followed by incubation at 37° C. for 3 days in the presence of 5% CO2.

O=C1N[C@H](COC(c2ccccc2)(c2ccccc2)c2ccccc2)[C@@H](O)[C@H](O)[C@H]1O [6-O-Triphenylmethyl-D-gluco-δ-lactam, 6-O-triphenylmethyl-D-gluco-δ-lactam]
LD50 ([1]; sc): > 300 mg/kg | Growth ([2]; Table 13, B16 subline, 3 μg/ml): + | Growth ([2]; Table 13, B16 subline, 10 μg/ml): + | Growth ([2]; Table 13, B16 subline, 30 μg/ml): + | Cytotoxicity (in words) [3]: did not show marked cytotoxicity | Growth ([3]; Table 13, L 929, 10 μg/ml): + | Growth ([3]; Table 13, L 929, 30 μg/ml): + | Inhibition of metastasis to the lungs (in words) [4]: markedly inhibited | Pulmonary Metastasis (Mean ± Standard Deviation) ([4]; Table 14, 30 μg/ml, 3 mice, None 92 ± 21.3): 17 ± 8.5 no.

OC[C@@H]1[C@@H](O)[C@H](O)[C@@H](O)CN1C/C=C/COc1ccccc1 [N-(4-phenoxy-trans-2-butenyl)-1-deoxynojirimycin]
LD50 ([1]; ip): > 500 mg/kg | Growth ([2]; Table 5, B16 subline, 3 μg/ml): + | Growth ([2]; Table 5, B16 subline, 10 μg/ml): + | Growth ([2]; Table 5, B16 subline, 30 μg/ml): + | Cytotoxicity (in words) [3]: did not show the marked cytotoxicity | Growth ([3]; Table 5, L 929, 3 μg/ml): + | Growth ([3]; Table 5, L 929, 30 μg/ml): + | Growth ([3]; Table 5, L 929, 100 μg/ml): + | Inhibition of metastasis to the lungs (in words) [4]: the number of colonies on the surface of and in the lungs was decreased | Pulmonary Metastasis, Mouse 1 ([4]; Table 6, 10 μg/ml, 14 days): 14 no. | Pulmonary Metastasis, Mouse 2 ([4]; Table 6, 10 μg/ml, 14 days): 48 no. | Pulmonary Metastasis, Mouse 3 ([4]; Table 6, 10 μg/ml, 14 days): 52 no. | Pulmonary Metastasis, Mean ± Standard Derivation ([4]; Table 6, 10 μg/ml, 14 days, None 135 ± 13.4): 38 ± 20.9 no. | Pulmonary Metastasis, % ([4]; Table 6, 10 μg/ml, None = 100): 28.1%
